Laboratory results as given in the NIST ThermoML archive (doi:10.1016/j.jct.2012.02.017).

Legend:
[1] = Ring tensiometer
[2] = xn = mol fraction of the nth substance listed; details: Ring tensiometer

CCO [ethanol]
[1]
Details | surface tension liquid-gas [mN/m]
288.15 K | 22.08
298.15 K | 21.19
308.15 K | 20.35
318.15 K | 20.18

CO [methanol]
[1]
Details | surface tension liquid-gas [mN/m]
288.15 K | 22.37
298.15 K | 21.64
308.15 K | 20.94
318.15 K | 19.93

CCCO [propan-1-ol]
[1]
Details | surface tension liquid-gas [mN/m]
288.15 K | 23.34
298.15 K | 22.54
308.15 K | 21.62
318.15 K | 20.99

[2H]O[2H] [water-d2]
[1]
Details | surface tension liquid-gas [mN/m]
288.15 K | 73.59
298.15 K | 71.87
308.15 K | 70.21
318.15 K | 68.84

[2H]O[2H] [water-d2] + CCCO
surface tension liquid-gas [mN/m], [2]
Details | 288.15 K | 298.15 K | 308.15 K | 318.15 K
x2 = 0.0007 | 70.61 | 68.81 | 67.5 | 66.16
x2 = 0.002 | 66.37 | 63.94 | 62.32 | 61.9
x2 = 0.0033 | 62.9 | 58.5 | 56.44 | 54.18
x2 = 0.0047 | 60.07 | 55.76 | 53.57 | 50.4
x2 = 0.006 | 57.59 | 54.16 | 52.75 | 48.26
x2 = 0.0099 | 52.32 | 48.49 | 46.75 | 45.22
x2 = 0.0165 | 45.84 | 43.67 | 40.52 | 39.54
x2 = 0.0255 | 41.34 | 39.38 | 38.39 | 37.11
x2 = 0.038 | 36.34 | 34.78 | 33.31 | 32.45
x2 = 0.0622 | 29 | 28.09 | 27.45 | 27.03
x2 = 0.138 | 25.81 | 24.9 | 24.75 | 23.58
x2 = 0.1851 | 25.78 | 25.09 | 24.19 | 23.62
x2 = 0.2272 | 25.17 | 24.99 | 24.38 | 23.37
x2 = 0.351 | 24.57 | 23.79 | 23.5 | 22.88
x2 = 0.4933 | 24.2 | 23.58 | 22.8 | 22.12
x2 = 0.6187 | 23.84 | 22.94 | 22.54 | 21.8
x2 = 0.8296 | 23.48 | 22.64 | 22.46 | 21.64

[2H]O[2H] [water-d2] + CCO
surface tension liquid-gas [mN/m], [2]
Details | 288.15 K | 298.15 K | 308.15 K | 318.15 K
x2 = 0.0008 | 72.5 | 70.96 | 69.43 | 67.73
x2 = 0.0016 | 71.29 | 69.78 | 68.35 | 66.43
x2 = 0.0023 | 70.28 | 68.67 | 67.12 | 65.55
x2 = 0.0039 | 68.68 | 66.88 | 65.22 | 63.52
x2 = 0.007 | 65.31 | 63.61 | 61.92 | 60.23
x2 = 0.0116 | 62.13 | 59.42 | 58.1 | 56.98
x2 = 0.0191 | 57.62 | 53.65 | 52.63 | 51.86
x2 = 0.0295 | 52.54 | 50.9 | 48.05 | 47.3
x2 = 0.044 | 47.97 | 46.07 | 44.17 | 42.27
x2 = 0.0716 | 41.94 | 38.62 | 36.3 | 33.32
x2 = 0.1103 | 36.22 | 34.15 | 33.1 | 31.3
x2 = 0.157 | 32 | 30.33 | 29.1 | 27.58
x2 = 0.1991 | 30.52 | 29.16 | 28.14 | 27.03
x2 = 0.2462 | 29.15 | 28.17 | 27.39 | 26.56
x2 = 0.345 | 27.29 | 25.99 | 25.03 | 24.63
x2 = 0.4209 | 26.21 | 25.23 | 23.67 | 22.85
x2 = 0.4811 | 25.3 | 24.59 | 23.56 | 22.7
x2 = 0.5703 | 24.34 | 23.44 | 23.02 | 22.3
x2 = 0.6752 | 23.36 | 22.45 | 21.97 | 21.57
x2 = 0.7572 | 22.98 | 21.59 | 20.92 | 20.9
x2 = 0.8618 | 22.37 | 21.48 | 20.41 | 20.11

[2H]O[2H] [water-d2] + CO
surface tension liquid-gas [mN/m], [2]
Details | 288.15 K | 298.15 K | 308.15 K | 318.15 K
x2 = 0.0045 | 71.03 | 69.55 | 68.1 | 66.54
x2 = 0.0154 | 66.2 | 65.13 | 64.17 | 62.8
x2 = 0.0304 | 61.24 | 60.45 | 59.67 | 58.88
x2 = 0.0509 | 56.43 | 55.33 | 54.09 | 52.97
x2 = 0.0707 | 52.83 | 52.04 | 51.25 | 50.48
x2 = 0.0896 | 50.23 | 49.45 | 48.65 | 47.92
x2 = 0.1252 | 45.79 | 45.01 | 44.56 | 42.8
x2 = 0.1737 | 42.45 | 41.8 | 40.26 | 39.66
x2 = 0.2171 | 38.51 | 38.07 | 37.7 | 36.61
x2 = 0.2684 | 36.01 | 35.49 | 35.1 | 34.16
x2 = 0.3133 | 34.68 | 34.05 | 33.49 | 32.65
x2 = 0.353 | 33.4 | 32.79 | 32.05 | 31.79
x2 = 0.4271 | 31.83 | 30.79 | 30.29 | 29.42
x2 = 0.5279 | 29.14 | 29.01 | 28.68 | 27.75
x2 = 0.691 | 26.15 | 25.65 | 25.06 | 24.38
x2 = 0.8173 | 23.49 | 22.96 | 22.48 | 21.75
